Data set [1] is described as follows: Single dose crossover pharmacokinetic study in dogs. The class given is in vivo. The settings on record: for AUC / Cmax: male, dog, plasma, po, single oral (gavage) dose, d3-etoricoxib 2.00 mg/kg, etoricoxib 1.98 mg/kg. Here is the method: A single dose crossover study was conducted to compare the pharmacokinetics of d3-etoricoxib and non-isotopically enriched etoricoxib in dogs. Four male dogs were dosed, and animals received each of the following treatments sequentially, with a minimum of four days washout between doses.
Blood samples were taken at 0.083, 0.25, 0.5, 1, 2, 4, 6, 8, 12, and 24 hours post-dose. Plasma was analyzed for d3-etoricoxib or non-isotopically enriched etoricoxib concentration.

Data set [2] has as its target T1, CYP3A4 (Homo sapiens, UniProt P08684). Description: Metabolic stability in CYP3A4 incubations (formation of methylhydroxy metabolites). Further details: purchased Corning 456202. The class given is in vitro ADME. The settings on record: for Formation of methylhydroxy metabolite relative to M1 formed from etoricoxib: human recombinant CYP3A4, over time (to 40 min), 1 μM; for Susceptibility to metabolism by CYP3A4 compared with non-isotopically enriched etoricoxib: human recombinant CYP3A4 incubations. The procedure: The metabolic stability of non-isotopically enriched etoricoxib, d3-etoricoxib, and an alternate deuterated form of etoricoxib, d4-etoricoxib (5-chloro-6′-methyl-3-(4-(methylsulfonyl)phenyl-2,3,5,6-d4)-2,3′-bipyridine, CAS No.: 1131345-14-6), in CYP3A4 incubations was evaluated. d4-Etoricoxib has the chemical structure:
Human recombinant CYP3A4 (Corning, item #456202, lot #9322001) was chosen for the assay conditions as CYP3A4 is the principle enzyme responsible for the metabolism of etoricoxib in humans. Formation of the methylhydroxy metabolites formed from etoricoxib, d3-etoricoxib, and d4-etoricoxib was monitored over time (Table 5, FIGS. 13 and 14).

A further data set concerns human liver microsomes. Description: Metabolic stability with human liver microsomes (formation of M1 / d2-M1 metabolite). The class given is in vitro ADME. The following applies: human liver microsomes 0.5 mg/mL, 1 μM, over 60 minutes, NADPH and UDPGA. Here is the method:
The metabolic stability of non-isotopically enriched etoricoxib and d3-etoricoxib, with human liver microsomes was evaluated.
Etoricoxib is extensively metabolized in humans with <1% of a dose recovered in urine as the parent drug. The primary pathway for metabolism of etoricoxib in humans is through the production of the methylhydroxy metabolite of etoricoxib (“M1”). Metabolism of etoricoxib involves conversion primarily to the “M1” derivative, mainly (ca. 60%) by CYP3A4, with less contribution by CYPs 1A2, 2C9, 2C19 and 2D6 (ca. 40% collectively). See, e.g., Arcoxia® (etoricoxib) Australian Product Information, available at http://apps.medicines.org.au/files/mkparcox.pdf (last visited Apr. 9, 2021), the contents of which are herein incorporated by reference in their entirety. Production of the “M1” metabolite and d3-etoricoxib (“d2-M1”) was evaluated in this experiment throughout the incubation period.
A general note: Liver microsomes are vesicles of endoplasmic reticulum, rich in cytochrome P450 enzymes.

For data set [3] the following is noted: humans; cited from earlier work.
Data set [4] deals with CYPs 1A2, 2C9, 2C19 and 2D6. The settings on record: humans; cited from earlier work.
Data set [5] deals with T1, CYP3A4. The settings on record: humans; cited from earlier work.
Setting [6] is: equivalent oral doses, four male dogs.
Setting [7] is: four male dogs, oral (gavage), 2.00 vs 1.98 mg/kg.
Setting [8] is: Animal 1001, male dog, read-out: AUC0.5-24 h.
Where [9] appears, read: Animal 1001, male dog, read-out: Cmax.
[10] abbreviates: Animal 1002, male dog, read-out: AUC0.5-24 h.
Where [11] appears, read: Animal 1002, male dog, read-out: Cmax.
The mark [12] stands for this setting: Animal 1003, male dog, read-out: AUC0.5-24 h.
The mark [13] stands for this setting: Animal 1003, male dog, read-out: Cmax.
Setting [14] is: Animal 1004, male dog, read-out: AUC0.5-24 h.
The mark [15] stands for this setting: Animal 1004, male dog, read-out: Cmax.
[16] abbreviates: Mean (SD) of four male dogs, read-out: AUC0.5-24 h, Mean (SD).
Where [17] appears, read: Mean (SD) of four male dogs, read-out: Cmax, Mean (SD).

Read-outs that look alike come from different tables or passages of the source.

T1 sequence (P08684 whole entry): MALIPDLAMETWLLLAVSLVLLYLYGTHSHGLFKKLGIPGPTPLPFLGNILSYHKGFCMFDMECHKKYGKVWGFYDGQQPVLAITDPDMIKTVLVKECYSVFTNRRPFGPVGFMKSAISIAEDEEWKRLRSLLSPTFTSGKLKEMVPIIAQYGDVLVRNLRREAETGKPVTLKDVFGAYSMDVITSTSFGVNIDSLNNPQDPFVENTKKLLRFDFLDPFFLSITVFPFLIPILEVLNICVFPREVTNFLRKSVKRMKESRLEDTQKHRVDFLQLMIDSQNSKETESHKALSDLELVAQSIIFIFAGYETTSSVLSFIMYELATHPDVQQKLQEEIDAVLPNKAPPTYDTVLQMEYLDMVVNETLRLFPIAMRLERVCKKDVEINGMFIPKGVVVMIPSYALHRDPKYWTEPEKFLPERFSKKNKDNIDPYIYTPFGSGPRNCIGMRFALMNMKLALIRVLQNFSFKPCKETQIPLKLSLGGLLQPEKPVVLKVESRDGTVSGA

With `[2H]C([2H])([2H])c1ccc(-c2ncc(Cl)cc2-c2ccc(S(C)(=O)=O)cc2)cn1` [d3-etoricoxib, 5-chloro-6′-(methyl-d3)-3-(4-(methylsulfonyl)phenyl)-2,3′-bipyridine], the “Cmax relative to non-isotopically enriched etoricoxib” value in data set [1] (setting [6]) is “higher Cmax”. Besides, the “Metabolism in dogs relative to non-isotopically enriched etoricoxib” value in data set [1] (setting [6]) is recorded as “substantially resistant to metabolism”. Further, the “Total exposure (AUC) relative to non-isotopically enriched etoricoxib” value in data set [1] (setting [6]) is given as “higher total exposure”. Besides, the “AUC0.5-24 h, Average % delta d3-etoricoxib vs etoricoxib” value in data set [1] (setting [7]) is given as “+48.6%”. Further, the “Cmax, Average % delta d3-etoricoxib vs etoricoxib” value in data set [1] (setting [7]) is “+54.9%”. Besides, the AUC in data set [1] (setting [8]) was found to be 0.516 µg·h/mL; in data set [1] (setting [10]), 1.02 µg·h/mL; in data set [1] (setting [12]), 1.26 µg·h/mL; in data set [1] (setting [14]) it was 0.658 µg·h/mL; in data set [1] (setting [16]), 0.865 µg·h/mL. Moreover, the Cmax was 0.628 µg/mL in data set [1] (setting [9]); 0.791 µg/mL in data set [1] (setting [11]); 0.593 µg/mL in data set [1] (setting [13]); 0.317 µg/mL in data set [1] (setting [15]); 0.604 µg/mL in data set [1] (setting [17]). Also, the “Formation of methylhydroxy metabolite relative to M1 formed from etoricoxib” value at CYP3A4 [2] was “about six-fold lower”. For the same molecule, at CYP3A4 [2], the “Susceptibility to metabolism by CYP3A4 compared with non-isotopically enriched etoricoxib” value is given as “substantially different”. Further, the “Amount of d2-M1 metabolite formed relative to M1 formed from etoricoxib” value with human liver microsomes is given as “approximately three-fold less”.
Consider `[2H]c1c([2H])c(S(C)(=O)=O)c([2H])c([2H])c1-c1cc(Cl)cnc1-c1ccc(C)nc1` [d4-etoricoxib, 5-chloro-6′-methyl-3-(4-(methylsulfonyl)phenyl-2,3,5,6-d4)-2,3′-bipyridine, reference compound], for which, at CYP3A4 [2], the “Formation of methylhydroxy metabolite relative to M1 formed from etoricoxib” value is “similar” and the “Susceptibility to metabolism by CYP3A4 compared with non-isotopically enriched etoricoxib” value is “almost identical”.
On to `Cc1ccc(-c2ncc(Cl)cc2-c2ccc(S(C)(=O)=O)cc2)cn1` [etoricoxib], for which, in data set [3], the “Dose recovered in urine as the parent drug” value is recorded as below 1%. Besides, the “Share of conversion to the M1 derivative by CYPs 1A2, 2C9, 2C19 and 2D6 collectively” value in data set [4] is “ca. 40%”. Also, the “Share of conversion to the M1 derivative by CYP3A4” value at CYP3A4 [5] is “ca. 60%”. Moreover, the AUC was determined as 0.342 µg·h/mL in data set [1] (setting [8]); 0.606 µg·h/mL in data set [1] (setting [10]); 1.13 µg·h/mL in data set [1] (setting [12]); 0.336 µg·h/mL in data set [1] (setting [14]); 0.582 µg·h/mL in data set [1] (setting [16]). Also, the Cmax in data set [1] (setting [9]) came out at 0.259 µg/mL; in data set [1] (setting [11]) it was 0.426 µg/mL; in data set [1] (setting [13]), 0.67 µg/mL; in data set [1] (setting [15]) it was 0.206 µg/mL; in data set [1] (setting [17]) it was 0.39 µg/mL.

A word on the Cmax: it is the maximum level reached in the sampled fluid or tissue.
